The test system of experiment [1] is pancreatic cancer cells (Capan-1). As to the kind of experiment: Drug combination with olaparib, Combination Index by Chou-Talalay method (CompuSyn). In kind it is cell-based, human. As to conditions: CI<0.9 denotes synergism. On the procedure:
The experiment was conducted in triplicates.

Experiment [2] relates to Liv7k cell line (oral cancer). As to the kind of experiment: Drug repurposing screen: growth inhibition of oral cancer cell line under normoxia and hypoxia (nuclei count). The experiment is classed as cell-based. Particulars: Homo sapiens; for inhibition at 10 µM: 72 h, read-out: Growth Inhibition (GI). On the procedure:
HPV-negative cell line derived from a T3N2b primary tumor of the tongue. The patient received no chemo/radiotherapy prior to tumor excision. Generously gifted by Professor Richard Shaw (Head and Neck Cancer Consultant, Liverpool, UK). Cells are maintained in keratinocyte SFM (Life Technologies), supplemented with 2 mM L-glutamine, 0.2 ng/ml epidermal growth factor (EGF) and 25 μg/ml bovine pituitary extract (BPE). The cell line was tested from mycoplasma contamination and authenticated by exome sequencing and CNV.
1397 compounds from the NIH Clinical Collection (Evotec, San Francisco, Calif.), LOPAC Pfizer (Sigma Aldrich), the Developmental Therapeutics Program (DTP)-Approved Oncology library and the FDA-Approved Drug Library (Selleck Chemicals) were tested at a single concentration of 10 μM. The libraries were received as 10 mM compounds in dimethyl sulfoxide (DMSO). Plates which conflicted with our plate layout were reformatted. The compounds were first diluted 1:50 in serum free media, and then further diluted 1:20 into to 96 well plates containing 5000 cells in 190 μl of keratinocyte SFM supplemented with 2 mM L-glutamine, 0.2 ng/ml EGF and 25 μg/ml BPE. 0.1% DMSO was used as a negative control, and staurosporine (Sigma Aldrich) at a concentration of 1 μM was used as a positive death control in all plates. Each drug was tested for 72 h under 21% and 0.1% O2. The cells were fixed using 4% formaldehyde after 72 h, and stained with DAPI dilactate (Sigma Aldrich). To assess viability, stained nuclei were counted using Perkin Elmer Operetta High Content Microscope.
An experimental screen was designed for testing whether the clinical SL-network can discriminate between cytotoxic and non-cytotoxic drugs, when considering a wide range of oncology and non-oncology drugs. Transcriptomic profiles of an oral cancer cell line under normoxia and hypoxia were obtained. Based on these profiles the network predicted the cell line response to 139 oncology and 531 non-oncology drugs in each condition. […]

The source of these data is US20170154163A1, “CLINICALLY RELEVANT SYNTHETIC LETHALITY BASED METHOD AND SYSTEM FOR CANCER PROGNOSIS AND THERAPY” (Ramot at Tel-Aviv University Ltd., priority 2015, published 2017).

One may read the inhibition as the percentage by which the read-out fell short of the control. Usually IC50 stands for the concentration at which inhibition is half-maximal. A high value points to weaker potency.

Read-outs that look alike come from different tables or passages of the source.

Consider `COc1cc([C@@H]2c3cc4c(cc3[C@@H](O[C@@H]3O[C@@H]5CO[C@@H](C)O[C@H]5[C@H](O)[C@H]3O)[C@H]3COC(=O)[C@H]23)OCO4)cc(OC)c1O` [Etoposide (VP16), etoposide], for which the “median Combination Index (CI)” value in experiment [1] is recorded as 0.718.

As for `O=C(CCCCCCC(=O)Nc1ccccc1)NO` [VORINOSTAT, vorinostat], the “median Combination Index (CI)” value in experiment [1] came to 0.551.

Consider `CN(C/C=C/C#CC(C)(C)C)Cc1cccc2ccccc12` [terbinafine], for which the inhibition at 10 µM in experiment [2] (hypoxia (0.1% O2)) came out at 45.2%; in experiment [2] (normoxia (21% O2)) it was 81.9%. In addition, the concentration for half-maximal inhibition (IC50) in experiment [2] (normoxia) was determined as 5.8 µM.
